≈ marks a conversion by molar mass, not a printed value.
Key:
[1] = target: T1, pirin (Homo sapiens, UniProt O00625); assay: Pirin SPR (surface plasmon resonance) binding
T1 sequence (O00625 1-290): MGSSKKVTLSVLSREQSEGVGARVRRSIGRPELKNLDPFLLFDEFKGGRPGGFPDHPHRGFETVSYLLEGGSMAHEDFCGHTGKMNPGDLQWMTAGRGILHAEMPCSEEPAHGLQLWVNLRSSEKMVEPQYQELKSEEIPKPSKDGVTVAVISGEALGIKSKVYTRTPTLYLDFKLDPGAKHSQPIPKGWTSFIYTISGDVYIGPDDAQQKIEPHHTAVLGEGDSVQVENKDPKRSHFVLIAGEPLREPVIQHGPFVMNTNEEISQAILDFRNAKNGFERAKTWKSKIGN
Method: 9 All surface plasmon resonance (SPR) experiments were carried out on a Biacore T100
enhanced to T200 sensitivity (GE Life Scienc es, Amersham Place, UK). Amine coupling chemistry was used to immobilize the
pirin protein on a research grade CM5 sensor chip. The running buffer used in the immobilization step consisted of 1 x phosph ate
using a 1:1 mixture of 100 mM N-hydroxysuccinimide and 400 mM 1 -ethyl-3-(3-dimethylaminopropyl)-carbodiimide. Pirin was
No. T6205) added to provide protection for the active site lysines. The reaction was monitored in real time and stopped when a
target immobilization level of ~5000RU was obtained. Finally, the surfa ce was blocked via an injection of 1 M ethanolamine at
pH 8.5 for 7 min. The flow rate was maintained at 10 µL/min for all the above procedures. Flow cell one was left unmodified a nd
used as the reference surface.
Following protein immobilization, the run ning buffer was changed to 1 x phosphate buffered saline containing 0.05 % (v/v)
polypropylene V-bottomed plates (Greiner, Stonehouse, UK), which became the sample plates for the SPR. For each compound,
an eight-point dose response experiment was carried out, usi ng a concentration range suitable for the estimated pK D, in a buffer
mix compatible with the Biacore running buffer. The experiments were performed at a flow rate of 30 µL/min, a sample injectio n
time of 90 seconds and a dissociation time of 200 seconds. The CM5 surface was not regenerated between sample injections.
The response units for the equilibrium analysis were measured 4 seconds prior to the end of the injection time. pK D values were
determined from analysis of the background normalized binding curv e generated from the sensorgrams, under equilibrium
as the geometric mean±standard error of the mean (SEM) from three independ ent measurements. The ratio of experimental to

[2] = LogD7.4 determination by RP-HPLC; settings: pH 7.4
Method: Kinetic Solubility Determination
(§1) Kinetic Solubility values were determined via an in-house RP-HPLC method. Calibration standards were prepared at a
(§2) concentration of 100 M in 100 % DMSO. Calibration was achieved by injecting 0.5, 2.5 and 5 L of the 100 M standard.
The supernatant was removed and a small
(§3) volume of DMSO was added to ensure the compound remained in solution. Kinetic solubility values were determined by
(§4) substituting the AUC (Area Under the Curve) of the kinetic solubility samples into the equation obtained from the linear part of
(§5) Injections (with needle wash) of the calibration and kinetic solubility samples were made onto a Phenomenex Kinetex C18
(§6) column (5 µm, 50 mm x 4.6 mm, 100A, Phenomenex, Torrence, USA). Chromatographic separation at 30 °C was carried out
(§7) modified with 0.1 % formic acid) at a flow rate of 1.5 mL/min.
(§8) array detector (Agilent, Santa Clara, USA). Raw data was processed using Agilent Chemstation Rev.C.01.05.8. The data was then […]
(§9) LogD7.4 values were determined via an in-house RP-HPLC method based on previous work by Kerns and Di.4 Calibration was […]
(§10) by comparing HPLC-determined Log D7.4 values of two other commercially-available drugs with literature Log D7.4 values. […]
(§11) HPLC Log D7.4 values of in-house compounds were determined by substituting the compounds’ retention times into the equation […]

[3] = PDP aqueous stability protocol; settings: 37 °C
Method: PDP Aqueous Stability Protocol.
1) Using 1000 µL pipette, dispense 990 µL of pH 7.4 PBS buffer into a 1.5 mL micro centrifuge tube. Using 10 µL pipette,
add 10 µL of a freshly prepared 10 mM compound DMSO stock solution into the PBS buffer.
2) Mix for 5 seconds on vortex mixer to create 100 µM stock solution.
3) Agitate 100 µM stock solution (500 rpm, Bohdan Shaker) for 120 minutes at room temperature and the centrifuge for 15
4) Using a 1000 µL pipette approx. 700 µL was carefully decanted from the micro centrifuge tube and put into a vial to
5) To produce a t = 0 sample; using a 200 µL pipette, 50 µL of DMSO was dispensed into insert vial. Then, using a 200 µL
pipette, 200 µL from solution A was added into the insert vial and vortexed for 5 seconds to produce a sample for HPLC
6) The vial containing solution A was then warmed to 37 °C, with stirring, and aliquots were taken at regular time intervals
using the same procedure as described in step 5.
Assuming first-order decay:

[4] = Kinetic solubility determination by RP-HPLC; settings: PBS, pH 7.4, aqueous buffer, kinetic from dmso stock
Method: Kinetic Solubility Determination
as §1, §2
The supernatant was removed and a small
as §3, §4, §5, §6, §7, §8, §9, §10, §11

[5] = target: T2, pirin protein in SK-OV-3 human ovarian cancer cells (Homo sapiens, UniProt O00625); assay: Pirin depletion in SK-OV-3 cells (immunoblot / capillary electrophoresis immunoassay); assay type: cell-based; settings: SK-OV-3 cells
T2 construct: endogenous in cells; host or cells: SK-OV-3
T2 sequence (O00625 1-290): T1 sequence (O00625 1-290)
Method: in vivo in athymic mice to increase its tumorigenicity and reliability as a xenograft, and used within 10 passages of banked stocks.
Prior to use, the cells were analyzed by short tandem repeat (STR) profiling. Polymorphic STR loci were amplified using a polymerase chain reaction (PCR) primer set. The PCR product (each locus being labelled with a different fluorophore) was analyzed simultaneously with size standards using automated fluorescent detection. The number of repeats at 10 different loci (as recommended by the American Type Culture Collection, ATCC) was used to define the STR profile and this was cross-referenced with online databases to confirm authenticity. […]
the ATCC reference line (LGC Promochem, UK). […]
nested PCR protocol (Venor GeM kit, Minerva Biolabs, Germany). Cells were grown in DMEM/10 % FCS, 2 mM glutamine and nonessential amino acids in 5 % CO2.
SK-OV-3 cells were treated as for each experimental condition. Cells were harvested and lysed by scraping in urea lysis buffer (20 mM HEPES pH 8.0, 9 M urea, 1 mM sodium orthovanadate, 2.5 mM sodium pyrophosphate, 1 mM β-glycerophosphate). […]
of samples was determined using a bicinchoninic acid (BCA) protein assay kit (Thermo Fisher Scientific). Western blotting was carried out as previously described.10 Pirin and GAPDH antibodies were obtained from Abcam (ab157212) and Merck […]
Samples were treated, harvested and lysed as described above. A total of 5 μL of 0.2 mg/mL protein was loaded into plates and capillary western analysis was carried out according to the manufacturer’s instructions (ProteinSimple WES). The data was analyzed with the Compass software (ProteinSimple).
Sigma-Aldrich and Cell Signaling Technology, respectively.
10 Sharp SY, Boxall K, Rowlands M, Prodromou C, Roe SM, Maloney A, Powers M, Clarke PA, Box G, Sanderson S, Patterson L, Matthews TP, Cheung KM, Ball K, Hayes A, Raynaud F, Marais R, Pearl L, Eccles S, Aherne W, McDonald E, Workman P. In vitro biological characterization of a novel, synthetic diaryl pyrazole resorcinol class of heat shock protein 90 inhibitors.

[6] = target: T1, pirin; assay: TMT MS2 whole proteome mass spectrometry in SK-OV-3 cells; assay type: cell-based; set-up: endogenous in cells; host or cells: SK-OV-3; settings: 50 nM, 4 h
Method: PDP 16 Quantified Mass Spectrometry in SK-OV-3 Cells
SK-OV-3 cells (enough to yield 50μg total protein per sample) treated with DMSO control or 50nM PDP 16 for 4 h. Cells were then harvested and lysed by scraping in urea lysis buffer (20mM HEPES pH 8.0, 9M urea, 1mM sodium orthovanadate, 2.5mM sodium pyrophosphate, 1mM β-glycerophosphate). Samples were sonicated and cent rifuged at 20,000 x g for 15 min and the protein extract (supernatant) collected . The experiment was performed in triplicates. The protein extract samples (supernatant) were then sent to www.proteomics.com, (Accessed September 7, 2017) for analysis.
Proteome Sciences’ proprietary TMT®MS2 workflow was applied for the analysis of total proteomic protein expression. In addition, Proteome Sciences’ bioinformatics tools were applied for data normalization, data integration and statistical analysis .
We identified 107318 unique peptides and 8 785 unique protein groups. This coverage of the proteome is within our normal range for peptide and protein identifications in cell line samples. […]
component analysis (PCA) plots explaining ~64% o f the variance of statistically significant features at peptide level. This observation was consistent with the result at protein level.
Using Proteome Sciences’ proprietary TMT®MS2 workflow on a cohort of SK-OV-3 cell line samples derived from ICR’s pirin degradation probe (n=3) and DMSO control (n=3). A reference sample was created from pooling the other samples.
PAGE confirming a good sample quality. Thus, all samples were processed following TMT®MS2 workflow.
All LC-MS/MS runs passed internal quality assessments, based on total ion counts (TICs) and number of peptide spectral matches (PSMs), considering the MS method to be used for data acquisition. Labelling efficiency was over 98.5% across all fractions.
TMT®MS2 identified 8785 unique protein groups from 107318 unique peptide sequences. This is within the typical range of protein and peptide identifications from cell line samples.
Total Peptide Spectral Match: 316215
Total Unique Peptide Sequences: 107318
Total Unique Protein IDs: 8785
Median Standard Deviation and Inter Quartile Range (IQR) were measured for each sample. […]
Protein solutions of SK -OV-3 cell line samples derived from ICR’s pirin degradation probe (n=3) and DMSO control (n=3) were provided in 9M urea 20 mM HEPES, 1 mM activated sodium orthovanadate, 2.5 mM sodium pyrophosphate, 1 mM b-glycerol-phosphate at pH 8.0. […] The protein concentration of the supernatant was determined by Bradford protein assay and each sample visualized by Coomassie stained (Imperial Stain, Pierce) SDS-PAGE 4-20% gradient gels (Criterion, Biorad) using 10 µg of each sample. […]

Kd ([1]; Pirin SPR KD, equilibrium analysis, one site specific binding model, geometric mean n = 3): 55 nM | Kd ([1]; Pirin SPR KD, representative single repeat, best-fit value, one site specific binding): 56.3 nM | Kd ([1]; Pirin SPR pKD, mean of 3 values (unrounded), column statistics): 54.5 nM | Increase in affinity for recombinant pirin compared to PDP 10 ([1]; SPR): 4.2 fold | Measured Rmax/Theoretical Rmax ([1]; SPR): 0.39 | chromatographic logD [2]: 2.7 | First-order decay rate constant ([3]; pH 7.4 PBS, n=2, Figure S1): 0.0038 min⁻¹ | Half-life (aqueous stability) ([3]; pH 7.4 phosphate buffer): ~3 h | half-life at 100 µM ([3]; phosphate buffer (PBS), pH 7.4, Half-life (aqueous stability), pH 7.4 phosphate buffer): 3 h | solubility kinetic at 120 min [4]: 2 µM (≈ 1.89 µg/mL) | Pirin degradation ([5]; 50 nM, 2 h exposure, Figure 3A): near complete pirin degradation | Concentration-response shape with increasing concentration ([5]; 50 to 1500 nM, up to 24 h): clear hook effect | Lowest concentration with pirin degradation activity ([5]; 2 h exposure, Figure 3B): 0.5 nM | Proteins with statistically significant (p(adj) < 0.05) difference in expression ([6]; 8547 quantifiable proteins): only pirin | P.Value pirin (PIR, O00625), PDP vs Veh ([6]; TMT): 1.64E-08 | Reduction of pirin protein expression vs vehicle ([6]; TMT): 2.3 fold | logFC pirin (PIR, O00625), PDP vs Veh ([6]; TMT): -1.208
SMILES: O=C1CCC(N2C(=O)c3cccc(OCCOCCOCCN4CCN(Cc5ccc6cc(C(=O)Nc7cc(NC(=O)c8ccc9c(c8)OCCO9)ccc7Cl)ccc6n5)CC4)c3C2=O)C(=O)N1 (centres unmarked) [PDP 16, N-(2-Chloro-5-(2,3-dihydrobenzo[b][1,4]dioxine-6-carboxamido)phenyl)-2-((4-(2-(2-(2-((2-(2,6-dioxopiperidin-3-yl)-1,3-dioxoisoindolin-4-yl)oxy)ethoxy)ethoxy)ethyl)piperazin-1-yl)methyl)quinoline-6-carboxamide]
